# Measured values: patent US20220033418A1, “HETEROCYCLENE DERIVATIVES AS PEST CONTROL AGENTS” (Bayer Aktiengesellschaft, priority 2018, published 2022)
# Assays:
# [1] = log P by reversed-phase HPLC, acidic range; type: physicochemical; conditions: reversed-phase C18 HPLC column, formic acid in water/acetonitrile
# Method: The log P values were determined according to EEC Directive 79/831 Annex V.A8 by HPLC (high-performance liquid chromatography) on a reversed-phase column (C18) using the following methods: ^[a] The log P value is determined by LC-UV measurement in the acidic range using 0.9 ml/1 formic acid in water and 1.0 ml/1 formic acid in acetonitrile as mobile phases (linear gradient from 10% acetonitrile to 95% acetonitrile). Calibration was carried out using a homologous series of straight-chain alkan-2-ones (having 3 to 16 carbon atoms) with known log P values. The values between successive alkanones are determined by linear regression.
# [2] = system: Ctenocephalides felis; experiment: Ctenocephalides felis oral test; type: in vivo; conditions: 100 ppm, oral via blood, after 2 days
# Method: Ctenocephalides felis—Oral Test
# Solvent: dimethyl sulfoxide
# To produce a suitable active compound formulation, 10 mg of active compound are mixed with 0.5 ml of dimethyl sulfoxide. Dilution with citrated cattle blood gives the desired concentration.
# About 20 unfed adult cat fleas (Ctenocephalides fells) are placed into a chamber which is closed at the top and bottom with gauze. A metal cylinder whose bottom end is closed with parafilm is placed onto the chamber. The cylinder contains the blood/active compound formulation, which can be imbibed by the fleas through the parafilm membrane.
# After 2 days, the kill in % is determined. 100% means that all of the fleas have been killed; 0% means that none of the fleas have been killed.
# [3] = system: Spodoptera frugiperda; experiment: Spodoptera frugiperda spray test; type: in vivo; conditions: 100 g/ha, corn leaf disks, after 7 days
# Method: Spodoptera frugiperda—Spray Test Solvent: 78.0 parts by weight of acetone • • 1.5 parts by weight of dimethylformamide Emulsifier: alkylaryl polyglycol ether To produce a suitable active compound formulation, 1 part by weight of active compound is dissolved using the stated parts by weight of solvent and made up with water containing an emulsifier concentration of 1000 ppm until the desired concentration is attained. To produce further test concentrations, the formulation is diluted with emulsifier-containing water. Leaf disks of corn (Zea mays) are sprayed with an active compound formulation of the desired concentration and, after drying, populated with caterpillars of the fall armyworm (Spodoptera frugiperda). After 7 days, the efficacy in % is determined. 100% means that all the caterpillars have been killed; 0% means that no caterpillar has been killed.
# [4] = system: Phaedon cochleariae; experiment: Phaedon cochleariae spray test; type: in vivo; conditions: 100 g/ha, Chinese cabbage leaf disks, after 7 days
# Method: Phaedon cochleariae—Spray Test
# Solvent: 78.0 parts by weight of acetone • • 1.5 parts by weight of dimethylformamide
# Emulsifier: alkylaryl polyglycol ether
# To produce a suitable active compound formulation, 1 part by weight of active compound is dissolved using the stated parts by weight of solvent and made up with water containing an emulsifier concentration of 1000 ppm until the desired concentration is attained. To produce further test concentrations, the formulation is diluted with emulsifier-containing water.
# Disks of Chinese cabbage leaves (Brassica pekinensis) are sprayed with an active compound formulation of the desired concentration and, after drying, populated with larvae of the mustard beetle (Phaedon cochleariae).
# After 7 days, the efficacy in % is determined. 100% means that all the beetle larvae have been killed; 0% means that no beetle larvae have been killed.
# [5] = system: Myzus persicae; experiment: Myzus persicae oral test; type: in vivo; conditions: 4 ppm, after 5 days
# Method: Myzus persicae—Oral Test Solvent: 100 parts by weight of acetone To produce a suitable active compound formulation, 1 part by weight of active compound is dissolved using the specified parts by weight of solvent and made up with water until the desired concentration is attained. 50 μl of the active compound preparation are transferred into microtitre plates and made up to a final volume of 200 μl with 150 μl of IPL41 insect medium (33%+15% sugar). Subsequently, the plates are sealed with parafilm, which a mixed population of green peach aphids (Myzus persicae) within a second microtitre plate is able to puncture and imbibe the solution through. After 5 days, the efficacy in % is determined. 100% means that all the aphids have been killed; 0% means that no aphids have been killed.
# [6] = system: Myzus persicae; experiment: Myzus persicae spray test (Chinese cabbage leaf disks); type: in vivo; conditions: 100 g/ha, after 5 days
# Method: Myzus persicae—Spray Test Solvent: 78 parts by weight of acetone • • 1.5 parts by weight of dimethylformamide Emulsifier: alkylaryl polyglycol ether To produce a suitable active compound formulation, 1 part by weight of active compound is dissolved using the stated parts by weight of solvent and made up with water containing an emulsifier concentration of 1000 ppm until the desired concentration is attained. To produce further test concentrations, the formulation is diluted with emulsifier-containing water. Disks of Chinese cabbage leaves (Brassica pekinensis) infested by all stages of the green peach aphid (Myzus persicae) are sprayed with an active compound formulation of the desired concentration. After 5 days, the efficacy in % is determined. 100% means that all the aphids have been killed; 0% means that no aphids have been killed.
# [7] = system: Myzus persicae; experiment: Myzus persicae spray test (MYZUPE), comparative, bell pepper plants; type: in vivo; conditions: 144 h, 6 dat (days after treatment), read-out: % Efficacy MYZUPE
# Method: Myzus persicae—Spray Test (MYZUPE) Solvent: 14 parts by weight of dimethylformamide Emulsifier: alkylaryl polyglycol ether To produce a suitable active compound formulation, 1 part by weight of active compound is dissolved using the stated parts by weight of solvent and made up with water containing an emulsifier concentration of 1000 ppm until the desired concentration is attained. To produce further test concentrations, the formulation is diluted with emulsifier-containing water. If the addition of ammonium salts or/and penetrants is required, these are each added in a concentration of 1000 ppm to the formulation solution. Bell pepper plants (Capsicum annuum) severely infested with the green peach aphid (Myzus persicae) are treated by spraying with the active compound formulation in the desired concentration. After the desired time, the kill in % is determined. 100% means that all the animals have been killed; 0% means that no animals have been killed.
# [8] = system: Diabrotica balteata; experiment: Diabrotica balteata drench test (DIABBA), comparative; type: in vivo; conditions: soil, 192 h, 8 dat (days after treatment), read-out: % Efficacy DIABBA
# Method: Diabrotica balteata—Drench Test (DIABBA) Solvent: 7 parts by weight of dimethylformamide Emulsifier: 2 parts by weight of alkylaryl polyglycol ether To produce a suitable active compound preparation, 1 part by weight of active compound is mixed with the specified amounts of solvent and emulsifier, and the concentrate is diluted with water to the desired concentration, it being necessary to include the volume of soil which is drenched in the calculation. It should be ensured that a concentration of 40 ppm of emulsifier in the soil is not exceeded. To produce further test concentrations, water is used for dilution. In each case 5 […] (Zea mays) are sown into pots filled with earth, and the next day the pots are watered with the active compound preparation of the desired concentration. After one day, about 25 L2 larvae of the banded cucumber beetle (Diabrotica balteata) are added. After 8 days, the efficacy in % is determined. 100% means that all 5 plants have germinated and grown; 0% means that none of the plants has emerged.
# [9] = system: Diabrotica balteata; experiment: Diabrotica balteata spray test; type: in vivo; conditions: 500 g/ha (=160 μg/cavity), after 7 days
# Method: Diabrotica balteata—Spray Test Solvent: 78 parts by weight of acetone • • 1.5 parts by weight of dimethylformamide Emulsifier: alkylaryl polyglycol ether To produce a suitable active compound formulation, 1 part by weight of active compound is dissolved using the stated parts by weight of solvent and made up with water containing an emulsifier concentration of 1000 ppm until the desired concentration is attained. To produce further test concentrations, the formulation is diluted with emulsifier-containing water. Pre-swollen wheat grains (Triticum aestivum) are incubated in a multiwell plate filled with agar and a little water for one day (5 seed grains per cavity). The germinated wheat grains are sprayed with an active compound formulation of the desired concentration. Subsequently, each cavity is infected with 10-20 beetle larvae of Diabrotica balteata. After 7 days, the efficacy in % is determined. 100% means that all wheat plants have grown as in the untreated, uninfected control; 0% means that no wheat plant has grown.
# [10] = system: Boophilus microplus; experiment: Boophilus microplus injection test; type: in vivo; conditions: 20 μg/animal, assessed after 7 days
# Method: Boophilus microplus—Injection Test Solvent: dimethyl sulfoxide To produce a suitable active compound formulation, 10 mg of active compound are mixed with 0.5 ml of solvent and the concentrate is diluted to the desired concentration with solvent. 1 μl of the active compound solution is injected into the abdomen of 5 engorged adult female cattle ticks (Boophilus microplus). The animals are transferred into dishes and kept in a climate-controlled room. Efficacy is assessed after 7 days by laying of fertile eggs. Eggs which are not visibly fertile are stored in a climate-controlled cabinet until the larvae hatch after about 42 days. An efficacy of 100% means that none of the ticks has laid any fertile eggs; 0% means that all the eggs are fertile.
chromatographic logP [1],SMILES,efficacy (kill in %) [2],efficacy [3],efficacy [4],efficacy [5],efficacy [6],Emax at 0.8 ppm [7],Emax at 0.8 ppm [8],efficacy [9],efficacy (no laying of fertile eggs) [10]
3.29,"CCS(=O)(=O)c1c(-c2nc3cc(OC(F)(F)F)ccc3n2C)nn2cc(C3(C#N)CC3)ccc12 [Example I-2, 1-[3-Ethylsulfonyl-2-[1-methyl-5-(trifluoromethoxy)benzimidazol-2-yl]pyrazolo[1,5-a]pyridin-6-yl]cyclopropanecarbonitrile]",,100%,,100%,,,,100%,
3.18,"CCS(=O)(=O)c1c(-c2nc3cc4c(cc3n2C)OC(F)(F)O4)nn2cc(C3(C#N)CC3)ccc12 [Example I-3, 1-[2-(2,2-Difluoro-7-methyl-[1,3]dioxolo[4,5-f]benzimidazol-6-yl)-3-ethylsulfonylpyrazolo[1,5-a]pyridin-6-yl]cyclopropanecarbonitrile]",,100%,,100%,,,,100%,
3.22,"CCS(=O)(=O)c1c(-c2nc3cc4c(nc3n2C)OC(F)(F)O4)nn2cc(C3(C#N)CC3)ccc12 [Example I-4, 1-[3-Ethylsulfonyl-2-[2,2-difluoro-7-methyl-[1,3]dioxoloimidazo[4,5-b]pyridin-6-yl]pyrazolo[1,5-a]pyridin-6-yl]cyclopropanecarbonitrile]",100%,100%,100%,100%,90%,,,,80%

# Continued, compound first:
SMILES,chromatographic logP [1],efficacy (kill in %) [2],efficacy [3],efficacy [4],efficacy [5],efficacy [6],Emax at 0.8 ppm [7],Emax at 0.8 ppm [8],efficacy [9],efficacy (no laying of fertile eggs) [10]
"Cn1c(-c2nn3cc(C4(C#N)CC4)ccc3c2Br)nc2cc(OC(F)(F)F)cnc21 [1-[3-Bromo-2-[3-methyl-6-(trifluoromethoxy)imidazo[4,5-b]pyridin-2-yl]pyrazolo[1,5-a]pyridin-6-yl]cyclopropanecarbonitrile]",3.9,,,,,,,,,
"CCS(=O)(=O)c1c(-c2nc3cc(OC(F)(F)F)cnc3n2C)nn2cc(C3(C#N)CC3)ccc12 [Example I-1, 1-[3-Ethylsulfonyl-2-[3-methyl-6-(trifluoromethoxy)imidazo[4,5-b]pyridin-2-yl]pyrazolo[1,5-a]pyridin-6-yl]cyclopropanecarbonitrile]",3.18,100%,100%,100%,100%,100%,100%,80%,,
"CCS(=O)(=O)c1c(-c2nc3cc(OC(F)(F)C(F)(F)F)cnc3n2C)nn2cc(C3(C#N)CC3)ccc12 [Example I-5, 1-[3-Ethylsulfonyl-2-[3-methyl-6-(1,1,2,2,2-pentafluoroethoxy)imidazo[4,5-b]pyridin-2-yl]pyrazolo[1,5-a]pyridin-6-yl]cyclopropanecarbonitrile]",3.76,,100%,,,,,,100%,
"CCS(=O)(=O)c1c(-c2nc3cc(C(F)(F)F)cnc3n2C)nn2cc(C3(C#N)CC3)ccc12 [prior art according to WO2017/155103, reference compound]",,,,,,,40%,50%,,
